Experimental data published in patent US9447083B2, “N-acylhydrazone derivatives for selective T cell inhibitor and anti-lymphoid malignancy drug” (CHONG KUN DANG PHARMACEUTICAL CORP., priority 2012, dated 2016).

How the values were obtained:
Type in all cases: cell-based
NK-92MI = experiment: Apoptosis of lymphoid malignancy cell lines: NK-92MI; conditions: Acute NK cell lymphoma, 24 hours, read-out: Administration Dose (mean ± SD, μmol/L) Lethal Dose 50 (Apoptosis)
Protocol: (§1) Each of the acute T cell leukemia cell lines Jurkat, Molt4 and CCRF-CEM, the acute B cell leukemia cell line Raji and the […] cell lines KMS11, KMS12BM, KMS26, KMS28BM, and IM9 was re-suspended in 10% FBS-containing RPMI medium at a concentration of 1.5×10^5 cells/mL, and 200 μL of each of the cell suspensions was cultured in a flat bottom 96-well plate (Costar). The acute NK cell lymphoma cell line NK-92MI was re-suspended in α-MEM medium (supplemented with 20% FBS, 1×MEM vitamine solution, 50 μM 2-mercaptoethanol and 1× penicillin/streptomycin) at a concentration of 1.5×10^5 cells/mL, and 200 μL of the cell suspension was cultured in a flat bottom 96-well plate. The cells in each well was treated with 10 μL of each of 0.1, 0.25, 0.5, 0.75 and 1 μM of the compound diluted with RPMI medium, followed by that the cells were incubated in a 5% CO2 incubator at 37° C. for 24 hours. […]
(§2) The cells were collected, and then the apoptosis thereof was analyzed by a flow cytometer after staining with Annexin V-7-AAD. The incubated cells were collected, placed in a 5-mL FACS tube (BD Falcon) and washed with 1 mL of fluorescence activated cell sorting (FACS) buffer (1%. FBS and 0.1% sodium azaide in PBS). […] The stained cells were suspended in 0.3 mL of FACS buffer, and then analyzed by a flow cytometer. […]

KMS11 = experiment: Apoptosis of lymphoid malignancy cell lines: KMS11; conditions: Homo sapiens, KMS-11; KMS11, Multiple myeloma, 24 hours; read-out: Administration Dose (mean ± SD, μmol/L) Lethal Dose 50 (Apoptosis)
Protocol: as §1, §2

KMS12BM = experiment: Apoptosis of lymphoid malignancy cell lines: KMS12BM; conditions: Homo sapiens, KMS-12-BM, Multiple myeloma, 24 hours, read-out: Administration Dose (mean ± SD, μmol/L) Lethal Dose 50 (Apoptosis)
Protocol: as §1, §2

IM9 = experiment: Apoptosis of lymphoid malignancy cell lines: IM9; conditions: Homo sapiens, IM-9; IM9, Multiple myeloma, 24 hours; read-out: Administration Dose (mean ± SD, μmol/L) Lethal Dose 50 (Apoptosis)
Protocol: (§3) Each of the acute T cell leukemia cell lines Jurkat, Molt4 and CCRF-CEM, the acute B cell leukemia cell line Raji and the […] cell lines KMS11, KMS12BM, KMS26, KMS28BM, and IM9 was re-suspended in 10% FBS-containing RPMI medium at a concentration of 1.5×10^5 cells/mL, and 200 μL of each of the cell suspensions was cultured in a flat bottom 96-well plate (Costar). The acute NK cell lymphoma cell line NK-92MI was re-suspended in α-MEM medium (supplemented with 20% FBS, 1×MEM vitamine solution, 50 μM 2-mercaptoethanol and 1× penicillin/streptomycin) at a concentration of 1.5×10^5 cells/mL, and 200 μL of the cell suspension was cultured in a flat bottom 96-well plate. The cells in each well was treated with 10 μL of each of 0.1, 0.25, 0.5, 0.75 and 1 μM of the compound diluted with RPMI medium, followed by that the cells were incubated in a 5% CO2 incubator at 37° C. for 24 hours. In a vehicle control group, cells were treated with 10 μL of medium containing 0.05% dimetylsulfoxide (DMSO, Sigma).
(§4) The cells were collected, and then the apoptosis thereof was analyzed by a flow cytometer after staining with Annexin V-7-AAD. The incubated cells were collected, placed in a 5-mL FACS tube (BD Falcon) and washed with 1 mL of fluorescence activated cell sorting (FACS) buffer (1%. FBS and 0.1% sodium azaide in PBS). The cells were re-suspended in 0.1 mL of FACS buffer, followed by that the cells were treated and stained with phycoerythrin-Annexin V at room temperature for 10 minutes. After 10 minutes of staining, the cells were treated and stained with 7-AAD at room temperature for 5 minutes. The stained cells were suspended in 0.3 mL of FACS buffer, and then analyzed by a flow cytometer. […] Thus, compounds 065, 108, 229 and 457 of the present invention can be used as a novel anti-lymphoid malignancy drug.

KMS28BM = experiment: Apoptosis of lymphoid malignancy cell lines: KMS28BM; conditions: KMS-28BM, Multiple myeloma, 24 hours, read-out: Administration Dose (mean ± SD, μmol/L) Lethal Dose 50 (Apoptosis)
Protocol: as §1, §2

Molt4 = experiment: Apoptosis of lymphoid malignancy cell lines: Molt4; conditions: Homo sapiens, MOLT-4; Molt4, Acute T cell leukemia, 24 hours; read-out: Administration Dose (mean ± SD, μmol/L) Lethal Dose 50 (Apoptosis)
Protocol: as §3, §4

Raji = experiment: Apoptosis of lymphoid malignancy cell lines: Raji; conditions: Homo sapiens, Acute B cell leukemia, 24 hours, read-out: Administration Dose (mean ± SD, μmol/L) Lethal Dose 50 (Apoptosis)
Protocol: as §1, §2

Jurkat T cells = experiment: Pro-apoptotic activity on Jurkat T cells (FITC-Annexin V / 7-AAD flow cytometry); conditions: Homo sapiens, 72 hours, cells stained with FITC-Annexin V and 7-AAD among total cells, read-out: Cell Apoptosis Effect to Jurkat T Cell (% in 5 μM)
In short: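 Jurkat cells at 1.5×10^5 cells/mL in RPMI/10% FBS treated with compounds at […] or 5 μM final for 72 h at 37° C, vehicle containing 1% DMSO. Stained with FITC-Annexin V and 7-AAD for 15 min at room temperature in pH 7.4 Hepes binding buffer. Apoptosis = % double-stained cells by flow cytometry.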

KMS26 = experiment: Apoptosis of lymphoid malignancy cell lines: KMS26; conditions: KMS-26; KMS26, Multiple myeloma, 24 hours; read-out: Administration Dose (mean ± SD, μmol/L) Lethal Dose 50 (Apoptosis)
Protocol: as §1, §2

Jurkat = experiment: Apoptosis of lymphoid malignancy cell lines (Annexin V / 7-AAD): Jurkat; conditions: Homo sapiens, Acute T cell leukemia, 24 hours, read-out: Administration Dose (mean ± SD, μmol/L) Lethal Dose 50 (Apoptosis)
Protocol: as §3, §4

CCRF-CEM = experiment: Apoptosis of lymphoid malignancy cell lines: CCRF-CEM; conditions: Homo sapiens, Acute T cell leukemia, 24 hours, read-out: Administration Dose (mean ± SD, μmol/L) Lethal Dose 50 (Apoptosis)
Protocol: as §1, §2

Row | SMILES | EC50 (NK-92MI) | EC50 (KMS11) | EC50 (KMS12BM) | EC50 (IM9) | EC50 (KMS28BM) | EC50 (Molt4) | EC50 (Raji) | cytotoxicity at 5 µM (Jurkat T cells) | EC50 (KMS26) | EC50 (Jurkat) | EC50 (CCRF-CEM)
1 | Cc1cc(C)c(OCC(=O)N/N=C/c2ccc3cc[nH]c3c2)c(C2CCOCC2)c1 [Compound 457, (E)-N′-((1H-indol-6-yl)methylene)-2-(2,4-dimethyl-6-(tetrahydro-2H-pyran-4-yl)phenoxy)acetohydrazide] | 0.46 ± 0.01 µmol/L | 0.63 ± 0.31 µmol/L | 0.22 ± 0.02 µmol/L | 0.38 ± 0.01 µmol/L | 0.47 ± 0.06 µmol/L | 0.25 ± 0.11 µmol/L | 0.68 ± 0.05 µmol/L | 100% | 0.55 ± 0.12 µmol/L | 0.2 ± 0.01 µmol/L | 0.17 µmol/L
2 | Cc1cc(C)c(OCC(=O)N/N=C/c2ccc3cc[nH]c3c2)c(C)c1 [Compound 108, (E)-N′-((1H-indol-6-yl)methylene)-2-(mesityloxy)acetohydrazide] | – | – | – | 1.41 ± 0.03 µmol/L | – | 1.38 ± 0.04 µmol/L | – | 100% | – | 0.78 ± 0.04 µmol/L | –
